Assay results as given in paper PMC12040169 (PLOS Biology, 2025).

Test: in vitro
Details: human, hela cells, % viability

| SMILES | viability at 28.5 h, 10 µM [%] |
| --- | --- |
| CCN1CC2(CCN(Cc3ccc4nsnc4c3)CC2)c2ccccc21 [CBK136994] | 87.7 |
| N#Cc1ccc(OCC(=O)Nc2cccnc2-n2cncn2)cc1 [CBK306004] | 85.9 |
| COCC(=O)N1CCc2sccc2C1c1ccc(NCc2ccc(C)o2)cc1 (centres unmarked) [CBK286447] | 96.3 |
| Cc1ccc(-c2cc(O)n(-c3nc(C)cc(C)n3)n2)cc1 [CBK270165] | 97.1 |
| CC(C)c1ccc(S(=O)(=O)n2c(=O)n(CCc3c[nH]c4ccccc34)c3ccccc32)cc1 [CBK106518] | 87.4 |
| O=C(NCc1ccco1)c1cc(-c2ccc3[nH]ccc3c2)cnc1NCCOc1ccccc1 [CBK106388] | 89.9 |
| CC(C)CC(C(=O)O)N1C(=O)/C(=C2/C(=O)Nc3ccc(Br)cc32)SC1=S (centres unmarked) [CBK261610] | 84.7 |
| Cc1cc(C#N)ccc1OCC(=O)NC1CCS(=O)(=O)C1 (centres unmarked) [CBK305816] | 84.9 |
| O=C(c1ccco1)N1CCc2cc(-c3cn4c(n3)CCCC4)ccc21 [CBK282893] | 98.8 |
| CC(=O)c1ccc(-c2cc(N3CCN(CCN4CCCC4)CC3)ncn2)s1 [CBK091169] | 98.8 |
| CS(=O)(=O)CCNC(=O)c1cnc(-c2ccc(F)cc2)c(-c2ccco2)c1 [CBK037505] | 93.1 |
| CSCCN1CCC(Oc2nccnc2OCC2COc3ccccc3O2)CC1 (centres unmarked) [CBK082996T] | 92.7 |
| COc1ccc(/C=C(\C#N)c2nc3ccccc3n2Cc2c(C)ccc3ccccc23)cc1 [CBK262960] | 119 |
| O=C(C[C@@H]1CCNC[C@@H]1Cc1cc(-c2ccc(F)cc2)on1)Nc1ccccc1 [CBK288801] | 96.4 |
| Cc1noc(C)c1S(=O)(=O)Nc1csc(C(F)(F)F)c1-c1ccccc1 [CBK001237] | 91 |
| CC(Oc1ccccc1)C(=O)Nc1ccccc1-c1ccccc1 (centres unmarked) [CBK264059] | 111 |
| O=C(NC1CCc2ccccc21)N1CCN(Cc2ccccc2)CC1 (centres unmarked) [CBK155662] | 97 |
| CCCN1CCC(CNC(=O)Cn2ccc3ccc(F)cc32)CC1 [CBK282573] | 88 |
| CS(=O)(=O)Nc1ccc(C(=O)Nc2ccc(S(=O)(=O)N3CCOCC3)cc2)cc1 [CBK268379] | 117 |
| O=S(=O)(c1cccs1)N1CCCN(Cc2nccs2)CC1 [CBK045172] | 119 |
| CC(=O)Nc1ccc(S(=O)(=O)N2CCN(c3ccc([N+](=O)[O-])c(N4CCOCC4)c3)CC2)cc1 [CBK264764] | 109 |
| COc1cc([N+](=O)[O-])ccc1NC(=O)CN(C)S(=O)(=O)c1ccc2ccccc2c1 [CBK267387] | 97.5 |
| O=C(N/N=C/c1ccc(OC(=O)c2ccc([N+](=O)[O-])cc2)cc1)c1cccnc1 [CBK262146] | 101 |

| SMILES | viability at 28.5 h, 10 µM [%] |
| --- | --- |
| CCOc1ccccc1CN(C)c1cc(C2CC(N)C2)nc(N)n1 (centres unmarked) [CBK307308] | 82.4 |
| CCc1c(C)cc(C(=O)N(C)C(CC)c2ccccn2)c(=O)n1C (centres unmarked) [CBK307078] | 95.6 |
| CC(C)(C)OC(=O)N1CCCC1C1COc2ccccc2C1=O (centres unmarked) [CBK281579] | 89.2 |
| CCCNc1cncc(-c2cccc(F)c2)n1 [CBK065441] | 97.3 |
| CCN(CCO)c1ccc(Nc2nc(Br)cn3ccnc23)cc1 [CBK037475] | 98.9 |
| FC(F)(F)Oc1ccc(-c2cc(NCCc3ccccn3)ncn2)cc1 [CBK037732] | 98.2 |
| O=C(NC[C@H]1O[C@@H](CC(=O)N2CCN(c3ccccn3)CC2)[C@H](O)[C@@H]1O)C1CC1 [CBK288904] | 107 |
| Nc1nnc2c(C(F)(F)F)nc3ccccc3n12 [CBK021345] | 82.1 |
| O=C(Nc1cncc(N2CCNCC2)n1)c1coc2c1C(=O)CCC2 [CBK004229T] | 96.8 |
| C=C[C@H]1C[N@@]2CC[C@H]1C[C@@H]2CNS(=O)(=O)c1cccc2cccnc12 [CBK288751] | 98.2 |
| CCOC(=O)c1cnn(C2CCCN(Cc3ccc(C#N)o3)C2)c1 (centres unmarked) [CBK304045] | 116 |
| COc1ccc(C(NC(=O)C2CCN(C(=O)NC(C)(C)C)CC2)c2ccccn2)cc1 (centres unmarked) [CBK060298] | 112 |
| COc1ccc(-c2noc(CN(C(=O)Cc3ccc(C)cc3)C(C)C)n2)cc1 [CBK269774] | 89.6 |
| Cc1ccc(S(=O)(=O)N2C[C@H]3C[C@H](NC(=O)C4CC4C)[C@H]3C2)cc1 (some centres unmarked) [CBK285318] | 108 |
| O=C(Nc1ccc(NC(=O)Nc2cccc(Cl)c2)cc1)Nc1cccc(Cl)c1 [CBK267623] | 93.9 |
| O=C(NC(NC1CCS(=O)(=O)C1)C(Cl)(Cl)Cl)c1ccc(Br)cc1 (centres unmarked) [CBK261091] | 98.2 |
| COC(=O)C1C(=O)NC(SCC(=O)Nc2cccc(Cl)c2C)=C(C#N)C1c1ccccc1F (centres unmarked) [CBK265830] | 94.9 |
| CCOc1ccc(-c2cncc(Nc3cccc(C(F)(F)F)c3)n2)cc1 [CBK065798] | 50 |
| O=C1CN(Cc2nc(-c3cccc(C(F)(F)F)c3)no2)CCN1 [CBK306038] | 92.9 |
| c1ccc2nc3c(nc2c1)sc1nc2ccccc2n13 [CBK268872] | 104 |
| Cn1c2ccccc2c2nnc(SCCCC(=O)c3ccc(F)cc3)nc21 [CBK268830] | 92.8 |
| C=C(C)Cn1nc(C)c(CN(C)CCN2CCCCC2)c1C [CBK282483] | 88.7 |
| O=C(Nc1cccc(-c2cn3cccnc3n2)c1)c1cccc([N+](=O)[O-])c1 [CBK268963] | 93 |

| SMILES | viability at 28.5 h, 10 µM [%] |
| --- | --- |
| CNCCc1nc(-c2cccs2)c2ccccn12 [CBK035905] | 94.5 |
| Fc1ccccc1CN(CCCn1ccnc1)Cc1cccnc1 [CBK283099] | 90.4 |
| Cc1cccc(C)c1NC(=O)CN1CCCN(c2cc(OCCN3C(=O)CCC3=O)ncn2)CC1 [CBK083313T] | 97.9 |
| O=C(c1c(F)cccc1F)N1CCC(c2cc3cccnc3[nH]2)CC1 [CBK284997] | 91.5 |
| CCC(=O)N1CCCC1c1nc(C)c2c(n1)N(Cc1ccc(F)cc1)CCC2 (centres unmarked) [CBK286247] | 104 |
| Cc1onc(-c2ccccc2)c1-c1n[nH]c(=S)o1 [CBK009044] | 76.7 |
| Cc1cccn2c(CN3CC(O)C3)c(C(=O)N3CCCCC3)nc12 [CBK306662] | 88.3 |
| COc1ccc(N(CCN2CCCCC2)S(=O)(=O)c2ccc(C)cc2)cc1 [CBK261131] | 98.7 |
| Cc1nn(CCNC(=O)C(c2ccc(F)cc2)N(C)C)c(C)c1C (centres unmarked) [CBK282009] | 89.2 |
| C[C@H]1CN2CCCC2CN1Cc1ccc2c(c1)CCO2 (some centres unmarked) [CBK285443] | 104 |
| O=C(c1ccncc1)N1CCc2cc(-c3csc(C4CC4)n3)ccc21 [CBK288618] | 94.5 |
| O=C(CNc1n[nH]c(=O)[nH]c1=O)N/N=C/c1ccc(C(=O)O)cc1 [CBK263529] | 96.2 |
| CCCC(=O)c1ccc(S(=O)(=O)N2CCN(Cc3ccc(F)c(C(F)(F)F)c3)CC2)cc1 [CBK063162] | 101 |
| O=C(NC1CCCCC1)c1ccccc1NC(=O)C1CCCCC1C(=O)O (centres unmarked) [CBK267675] | 97 |
| CC(C)(C)OC(=O)Nc1cc(Cl)ccc1C(=O)O [CBK200024] | 103 |
| CN1CCN(CCC(=O)N/N=C/c2ccsc2)CC1 [CBK261505] | 94.8 |
| COc1ccc(-c2cc(C(=O)Nc3ccc(O)cc3)cnc2-c2ccc(F)cc2)cc1 [CBK038026] | 95.5 |
| CC1CC(C)CN(CCCNC(=O)c2cc(-c3cccs3)no2)C1 (centres unmarked) [CBK281949] | 93 |
| Cc1c(CNCCN2CCN(C)CC2c2ccccc2)cnn1C (centres unmarked) [CBK304056] | 98.8 |
| CC(CNC(=O)COc1ccc2ccccc2c1Br)CN(C)C (centres unmarked) [CBK267369] | 94.9 |
| Nn1c(SCC(=O)Nc2ccc3c(c2)oc2ccccc23)nnc1-c1ccc(Cl)cc1Cl [CBK265090] | 91.7 |
| CCOC(=O)c1c(NC(=O)Cn2cnc([N+](=O)[O-])n2)sc2c1CCC(C)C2 (centres unmarked) [CBK263058] | 120 |
| CS(=O)(=O)N1CC2(CCN(Cc3ccc(Cl)c(Cl)c3)CC2)c2ccccc21 [CBK084043] | 102 |

| SMILES | viability at 28.5 h, 10 µM [%] |
| --- | --- |
| CCCc1[nH]nc(O)c1CCc1cccc(OC)c1OC [CBK075078] | 97 |
| O=C1CCCN1c1ccc(S(=O)(=O)N2CCN(c3ccccn3)CC2)cc1 [CBK268237] | 84.5 |
| CCN1CCN(C(=O)CN(c2ccccc2)S(=O)(=O)N(C)C)CC1 [CBK268222] | 113 |
| O=C(NCc1ccccc1)c1ccc(N2C(=O)CSC23C(=O)Nc2ccccc23)cc1 (centres unmarked) [CBK093476] | 109 |
| COCC1CCCN(Cc2cn(C)nc2C(C)(C)C)C1 (centres unmarked) [CBK304818] | 108 |
| COc1ccc([N+](=O)[O-])c(Sc2cccs2)n1 [CBK002625] | 84.9 |
| c1ccc(Cn2c(CN3CCCCC3)nc3ccccc32)cc1 [CBK269237] | 102 |
| Cc1cc(C)c(OCCOCCN2CCNCC2)c(Br)c1 [CBK266079G] | 99.6 |
| CN1CCN(CCOC(=O)N2CCCC(C(F)(F)F)C2)CC1 (centres unmarked) [CBK200207] | 87.2 |
| NC(=O)C1CCN(C(=O)c2cc(O)nc3ccccc23)CC1 [CBK296719] | 98.2 |
| CN1CCN(CCCNC(=O)N2CCCC(CO)C2)CC1 (centres unmarked) [CBK156029] | 99.7 |
| CC(=O)NCCSc1ccc(C(F)(F)F)cn1 [CBK105298] | 94.3 |
| Nc1ncc(-c2ccncc2)nc1-c1ccc(C=O)cc1 [CBK064102] | 106 |
| CCNc1cncc(-c2ccc(N)cc2)n1 [CBK065658] | 112 |
| FC(F)(F)c1ccncc1-n1cccc1 [CBK021909] | 85.9 |
| OCC1CCC(O)C(CO)N1 (centres unmarked) [CBK022827C] | 86.5 |
| Cc1ccc(-n2c(SCC(=O)N3CCOCC3)nnc2-c2ccccc2O)c(C)c1 [CBK269112] | 88.1 |
| COCCc1nc(-c2csc(CN(C)C)n2)n(Cc2ccccc2C)n1 [CBK306735] | 107 |
| COc1ccc(C)cc1-n1ccc(C(=O)NC2(C#N)CCSC2)n1 (centres unmarked) [CBK304943] | 93.1 |
| COc1cc(CNc2nnn[nH]2)cc(Br)c1OCc1ccc(Cl)cc1 [CBK300496] | 87.2 |
